In paper PMC8206213, “An L-2-hydroxyglutarate biosensor based on specific transcriptional regulator LhgR” (Nature Communications, 2021):
Several values for one entry are separate records, joined by “and”; a condition that tells them apart may be missing. Equal values may be shown once. Entries after “also recorded” stand apart in the source; their conditions may differ.

Legend:
LhgO = assay: Enzymatic assay of LhgO in crude extracts of P. putida KT2440 derivatives grown on different carbon sources (induction of lhgO under LhgR control); format: cell-based, Pseudomonas putida
Description: The cells were harvested at mid-log phase, washed twice and resuspended in phosphate-buffered saline (PBS), then lysed by sonication on ice after the addition of 1 mM phenylmethylsulfonyl fluoride (PMSF). […] Protein concentrations of the supernatants were determined using the Bradford protein assay kit (Sangon, China). […] The 800 μL reaction solution contained 0.1 mM […], 0.05 mM DCPIP, 0.2 mM phenazine methosulfate (PMS) in PBS and 40 μL crude extracts.

LhgR = assay: EMSA, effect of compounds on LhgR binding to the lhgO promoter region F1; design: species or system Pseudomonas putida W619; conditions: 50 mM compound, 10 nM F1, 60 nM LhgR
Procedure, shortened: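 Purified LhgR was preincubated 15 min at 30 °C with candidate effectors (L-lysine, 5-aminovalerate, glutarate, L-2-HG, D-2-HG, 2-KG, succinate), then 30 min at 30 °C with 10 nM F1 or F2 DNA. Buffer: 10 mM Tris-HCl pH 7.4, 50 mM KCl, 10% glycerol, 1 mM DTT. Shift seen on 6% native PAGE with SYBR green I.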

LHGFR0N3C = assay: Specificity of purified LHGFR0N3C, emission ratio with 240 μM compounds; format: binding, Pseudomonas putida W619; conditions: 240 μM compound
LHGFR0N7C = assay: Influence of other compounds on the response of purified LHGFR0N7C to L-2-HG; format: binding, Pseudomonas putida W619
Procedure, shortened: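 Purified L-2-HG biosensors were mixed 3:1 with test compounds in 50 mM Tris-HCl pH 7.4, excited at 430 nm, and the 528 nm (Venus)/485 nm (mTFP) emission was read. Responses were fitted with a Hill model giving apparent Kd and Hill slope.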

## O=C(O)CC[C@H](O)C(=O)O [L-2-HG, L-2-Hydroxyglutarate]
LhgO; crude extract of DcsiRDcsiDDlhgO-pME6032-F2-lhgR-F1-lhgO grown with the compound as sole carbon source
  LhgO activity: 0.02147 and 0.02016 and 0.02474
LhgO; crude extract of DcsiRDcsiDDlhgO-pME6032 grown with the compound as sole carbon source
  LhgO activity: 0.00119 and 0.00104 and 0.00167
LhgO; crude extract of DcsiRDlhgO-pME6032-F2-lhgR-F1-lhgO grown with the compound as sole carbon source
  LhgO activity: 0.02241 and 0.0245 and 0.02829
LhgO; gene segment F2-lhgR-F1-lhgO in P. putida KT2440 derivatives
  Induction of lhgO expression / effector molecule of LhgR: can induce the expression of lhgO
LhgR
  Effect on LhgR binding to the lhgO promoter region F1: prevents LhgR binding to the lhgO promoter region; also recorded: release of LhgR from fragments F1 was observed only in the presence of L-2-HG
LHGFR0N3C
  Emission ratio: 2.0582 and 2.052 and 2.059
LHGFR0N7C; L-2-HG concentration 0.01, in the absence of 2-KG, Suppl. Fig. 9h
  Emission ratio of 528/485: 1.669 and 1.681 and 1.673
LHGFR0N7C; L-2-HG concentration 0.01, in the absence of D-2-HG, Suppl. Fig. 9f
  Emission ratio of 528/485: 1.668 and 1.665 and 1.6772
LHGFR0N7C; L-2-HG concentration 0.01, in the presence of 2-KG, Suppl. Fig. 9h
  Emission ratio of 528/485: 1.723
LHGFR0N7C; L-2-HG concentration 0.01, in the presence of D-2-HG, Suppl. Fig. 9f
  Emission ratio of 528/485: 1.965 and 1.961 and 1.978
LHGFR0N7C; L-2-HG concentration 0.1, in the absence of D-2-HG, Suppl. Fig. 9f
  Emission ratio of 528/485: 1.677 and 1.673 and 1.693
LHGFR0N7C; L-2-HG concentration 0.1, in the presence of D-2-HG, Suppl. Fig. 9f
  Emission ratio of 528/485: 1.971 and 1.964 and 1.956
LHGFR0N7C; L-2-HG concentration 0.2, in the absence of D-2-HG, Suppl. Fig. 9f
  Emission ratio of 528/485: 1.691 and 1.69 and 1.731
LHGFR0N7C; L-2-HG concentration 0.2, in the presence of D-2-HG, Suppl. Fig. 9f
  Emission ratio of 528/485: 1.971 and 1.94 and 1.9794
LHGFR0N7C; L-2-HG concentration 1, in the absence of D-2-HG, Suppl. Fig. 9f
  Emission ratio of 528/485: 1.801 and 1.777 and 1.826
LHGFR0N7C; L-2-HG concentration 1, in the presence of D-2-HG, Suppl. Fig. 9f
  Emission ratio of 528/485: 2.027 and 1.982 and 2.045
LHGFR0N7C; L-2-HG concentration 2, in the absence of D-2-HG, Suppl. Fig. 9f
  Emission ratio of 528/485: 1.915 and 1.897 and 1.932
LHGFR0N7C; L-2-HG concentration 2, in the presence of D-2-HG, Suppl. Fig. 9f
  Emission ratio of 528/485: 2.096 and 2.057 and 2.13
LHGFR0N7C; L-2-HG concentration 10, in the absence of D-2-HG, Suppl. Fig. 9f
  Emission ratio of 528/485: 2.29 and 2.251 and 2.3138
LHGFR0N7C; L-2-HG concentration 10, in the presence of D-2-HG, Suppl. Fig. 9f
  Emission ratio of 528/485: 2.341 and 2.308 and 2.373
LHGFR0N7C; L-2-HG concentration 20, in the absence of 2-KG, Suppl. Fig. 9h
  Emission ratio of 528/485: 2.356 (2×) and 2.408
LHGFR0N7C; L-2-HG concentration 20, in the absence of D-2-HG, Suppl. Fig. 9f
  Emission ratio of 528/485: 2.392 and 2.365 and 2.398
LHGFR0N7C; L-2-HG concentration 20, in the presence of 2-KG, Suppl. Fig. 9h
  Emission ratio of 528/485: 2.43 and 2.42 and 2.428
LHGFR0N7C; L-2-HG concentration 20, in the presence of D-2-HG, Suppl. Fig. 9f
  Emission ratio of 528/485: 2.458 and 2.457 and 2.465
LHGFR0N7C; L-2-HG concentration 100, in the absence of 2-KG, Suppl. Fig. 9h
  Emission ratio of 528/485: 2.538 and 2.5321 and 2.598
LHGFR0N7C; L-2-HG concentration 100, in the absence of D-2-HG, Suppl. Fig. 9f
  Emission ratio of 528/485: 2.581 and 2.561 and 2.566
LHGFR0N7C; L-2-HG concentration 100, in the presence of 2-KG, Suppl. Fig. 9h
  Emission ratio of 528/485: 2.5747 and 2.606 and 2.576
LHGFR0N7C; L-2-HG concentration 100, in the presence of D-2-HG, Suppl. Fig. 9f
  Emission ratio of 528/485: 2.5851 and 2.631 and 2.587
LHGFR0N7C; L-2-HG concentration 200, in the absence of 2-KG, Suppl. Fig. 9h
  Emission ratio of 528/485: 2.539 and 2.563 and 2.555
LHGFR0N7C; L-2-HG concentration 200, in the absence of D-2-HG, Suppl. Fig. 9f
  Emission ratio of 528/485: 2.5575 and 2.555 and 2.59
LHGFR0N7C; L-2-HG concentration 200, in the presence of 2-KG, Suppl. Fig. 9h
  Emission ratio of 528/485: 2.617 and 2.618 and 2.612
LHGFR0N7C; L-2-HG concentration 200, in the presence of D-2-HG, Suppl. Fig. 9f
  Emission ratio of 528/485: 2.597 and 2.613 and 2.641
LHGFR0N7C; L-2-HG concentration 1000, in the absence of 2-KG, Suppl. Fig. 9h
  Emission ratio of 528/485: 2.624 and 2.621 and 2.641
LHGFR0N7C; L-2-HG concentration 1000, in the absence of D-2-HG, Suppl. Fig. 9f
  Emission ratio of 528/485: 2.621 and 2.615 and 2.63
LHGFR0N7C; L-2-HG concentration 1000, in the presence of 2-KG, Suppl. Fig. 9h
  Emission ratio of 528/485: 2.674 and 2.614 and 2.6567
LHGFR0N7C; L-2-HG concentration 1000, in the presence of D-2-HG, Suppl. Fig. 9f
  Emission ratio of 528/485: 2.625 and 2.6112 and 2.6354
LHGFR0N7C; L-2-HG concentration 2000, in the absence of 2-KG, Suppl. Fig. 9h
  Emission ratio of 528/485: 2.674 and 2.655 and 2.638
LHGFR0N7C; L-2-HG concentration 2000, in the absence of D-2-HG, Suppl. Fig. 9f
  Emission ratio of 528/485: 2.642 and 2.658 and 2.618
LHGFR0N7C; L-2-HG concentration 2000, in the presence of 2-KG, Suppl. Fig. 9h
  Emission ratio of 528/485: 2.683 and 2.662 and 2.678
LHGFR0N7C; L-2-HG concentration 2000, in the presence of D-2-HG, Suppl. Fig. 9f
  Emission ratio of 528/485: 2.621 and 2.633 and 2.649
LHGFR0N7C; Suppl. Fig. 9b, L-2-HG alone or with the compound, three replicates
  Emission ratio: 2.613 and 2.611 and 2.604
